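Exposure lasted 48 hours, with cells grown in 96-well plates and compounds tested at five concentrations. At the GI50, growth is halved. TGI: concentration producing complete growth inhibition.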
Legend:
Assay in all cases: inhibition of tumour cell growth, NCI panel, 48 h
[1] = tested on: 786-0 renal
[2] = tested on: A498 renal
[3] = tested on: A549 NSCLC
[4] = tested on: ACHN renal
[5] = tested on: BT-549 breast
[6] = tested on: CAKI-1 renal
[7] = tested on: CCRF-CEM leukemia
[8] = tested on: COLO 205 colon
[9] = tested on: DU-145 prostate
[10] = tested on: EKVX NSCLC
[11] = tested on: HCC-2998 colon
[12] = tested on: HCT-116 colon
[13] = tested on: HCT-15 colon
[14] = tested on: HOP-62 NSCLC
[15] = tested on: HOP-92 NSCLC
[16] = tested on: HS 578T breast
[17] = tested on: HT29 colon
[18] = tested on: IGROV1 ovarian
[19] = tested on: K-562 leukemia
[20] = tested on: KM12 colon
[21] = tested on: LOX IMVI melanoma
[22] = tested on: M14 melanoma
[23] = tested on: MALME-3M melanoma
[24] = tested on: MCF7 breast
[25] = tested on: MDA-MB-231 breast
[26] = tested on: MDA-MB-435
[27] = tested on: MOLT-4 leukemia
[28] = tested on: NCI-H226 lung
[29] = tested on: NCI-H23 lung
[30] = tested on: NCI-H460 lung
[31] = tested on: NCI-H522 lung
[32] = tested on: NCI/ADR-RES ovarian
[33] = tested on: OVCAR-3 ovarian
[34] = tested on: OVCAR-4 ovarian
[35] = tested on: OVCAR-5 ovarian
[36] = tested on: OVCAR-8 ovarian
[37] = tested on: PC-3 prostate
[38] = tested on: RPMI-8226 leukemia
[39] = tested on: RXF 393 renal
[40] = tested on: SF-268 CNS
[41] = tested on: SF-295 CNS
[42] = tested on: SF-539 CNS
[43] = tested on: SK-MEL-2 melanoma
[44] = tested on: SK-MEL-28 melanoma
[45] = tested on: SK-MEL-5 melanoma
[46] = tested on: SK-OV-3 ovarian
[47] = tested on: SN12C renal
[48] = tested on: SNB-19 CNS
[49] = tested on: SNB-75 CNS
[50] = tested on: SR leukemia
[51] = tested on: SW-620 colon
[52] = tested on: T-47D breast
[53] = tested on: TK-10 renal
[54] = tested on: U251 CNS
[55] = tested on: UACC-257 melanoma
[56] = tested on: UACC-62 melanoma
[57] = tested on: UO-31 renal

Cc1cn2c(/C=C3/C(=O)Nc4ccc(O)cc43)c(C)nc2s1
GI50 [1]: 4.95 µM
TGI [1]: > 100 µM
GI50 [2]: 19.1 µM
TGI [2]: 67.7 µM
GI50 [3]: 19.9 µM
TGI [3]: > 80.6 µM
GI50 [4]: 5.72 µM
TGI [4]: 62.8 µM
GI50 [5]: 5.82 µM
TGI [5]: 57.7 µM
GI50 [6]: 3.28 µM
TGI [6]: 19.8 µM
GI50 [7]: 1250 nM
GI50 [8]: 3.58 µM
TGI [8]: > 100 µM
GI50 [9]: 6.43 µM
TGI [9]: > 100 µM
GI50 [10]: 12.9 µM
TGI [10]: > 100 µM
GI50 [11]: 1760 nM
TGI [11]: 5.01 µM
GI50 [12]: 1220 nM
TGI [12]: > 45.5 µM
GI50 [13]: 3.78 µM
TGI [13]: > 58.5 µM
GI50 [14]: 2890 nM
TGI [14]: > 68 µM
GI50 [15]: 373 nM
TGI [15]: 8.87 µM
GI50 [16]: 2680 nM
TGI [16]: 18.2 µM
GI50 [17]: 2470 nM
TGI [17]: > 100 µM
GI50 [18]: 7.23 µM
TGI [18]: > 100 µM
GI50 [19]: 362 nM
TGI [19]: > 61.8 µM
GI50 [20]: 1800 nM
TGI [20]: 24.3 µM
GI50 [21]: 4.46 µM
TGI [21]: 99.6 µM
GI50 [22]: 2290 nM
TGI [22]: > 39.1 µM
GI50 [23]: 946 nM
TGI [23]: 19.5 µM
GI50 [24]: 1600 nM
TGI [24]: > 33.6 µM
GI50 [25]: 2820 nM
TGI [25]: > 62.4 µM
GI50 [26]: 169 nM
TGI [26]: 1150 nM
GI50 [27]: 4.46 µM
TGI [27]: 48.6 µM
GI50 [28]: 4.91 µM
TGI [28]: 39.8 µM
GI50 [29]: 7.12 µM
TGI [29]: > 68.9 µM
GI50 [30]: 2560 nM
TGI [30]: 14.5 µM
GI50 [31]: 773 nM
TGI [31]: > 29.3 µM
GI50 [32]: 20.9 µM
TGI [32]: > 70.6 µM
GI50 [33]: 486 nM
TGI [33]: > 22.6 µM
GI50 [34]: > 51.4 µM
TGI [34]: > 100 µM
GI50 [35]: 28.3 µM
TGI [35]: > 100 µM
GI50 [36]: 10.4 µM
TGI [36]: > 51.7 µM
GI50 [37]: 2110 nM
TGI [37]: 37.2 µM
GI50 [38]: 1930 nM
TGI [38]: > 20.6 µM
GI50 [39]: 2890 nM
TGI [39]: > 72.5 µM
GI50 [40]: 3.42 µM
TGI [40]: 56.8 µM
GI50 [41]: 1730 nM
TGI [41]: 8.08 µM
GI50 [42]: 2420 nM
TGI [42]: 9.16 µM
GI50 [43]: > 53 µM
TGI [43]: > 100 µM
GI50 [44]: 8.44 µM
TGI [44]: > 100 µM
GI50 [45]: 1400 nM
TGI [45]: 7.74 µM
GI50 [46]: 3.8 µM
TGI [46]: > 28.8 µM
GI50 [47]: 3.79 µM
TGI [47]: 41.4 µM
GI50 [48]: 5.47 µM
TGI [48]: > 100 µM
GI50 [49]: 4.61 µM
TGI [49]: > 100 µM
GI50 [50]: 316 nM
TGI [50]: 13.6 µM
GI50 [51]: 2880 nM
TGI [51]: > 100 µM
GI50 [52]: 2640 nM
TGI [52]: 25.5 µM
GI50 [53]: 2430 nM
TGI [53]: 26 µM
GI50 [54]: 3.06 µM
TGI [54]: 35.7 µM
GI50 [55]: 7.85 µM
TGI [55]: > 47.1 µM
GI50 [56]: 1160 nM
TGI [56]: 11.4 µM
GI50 [57]: 26.5 µM
TGI [57]: > 100 µM

From PubChem BioAssay (NCI)
